Article PMC7195466, “A common allosteric mechanism regulates homeostatic inactivation of auxin and gibberellin” (Nature Communications, 2020)

Experiments:
[1] = target: T1, OsGA2ox3 (GA 2-oxidase 3) (Oryza sativa, UniProt Q8S0S6); test: X-ray crystal structure, […] Å; format: binding; details: Fe(II) absent
T1 construct: gene GA2OX3; full-length coding region in pGEX6P1, GST tag cut off with PreScission protease, E. coli Rosetta (DE3) pLysS; monomer, homotetramer with GA4

OsGA2ox6 = target: T2, OsGA2ox6 (Oryza sativa, UniProt Q7XP65); test: gel filtration, ligand-induced dimerization; format: binding; details: 10 mM GA4 incubation, 18 h, 25 °C, pH 7.4; interface (allosteric)
T2 construct: gene GA2OX6; full-length coding region in pGEX6P1 (GST fusion); C20-type; monomer, dimer with GA4
T2 sequence (Q7XP65 1-358): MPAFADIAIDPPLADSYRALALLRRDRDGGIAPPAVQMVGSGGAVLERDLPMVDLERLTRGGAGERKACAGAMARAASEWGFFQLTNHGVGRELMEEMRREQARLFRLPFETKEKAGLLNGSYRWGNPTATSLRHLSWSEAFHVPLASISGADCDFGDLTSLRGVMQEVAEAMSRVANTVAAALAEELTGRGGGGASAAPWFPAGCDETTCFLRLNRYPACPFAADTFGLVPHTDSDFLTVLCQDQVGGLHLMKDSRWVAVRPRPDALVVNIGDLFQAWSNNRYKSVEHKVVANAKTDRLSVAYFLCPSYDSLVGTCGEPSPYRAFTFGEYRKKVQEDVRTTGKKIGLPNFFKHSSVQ

[2] = target: T3, OsGA2ox3 (GA 2-oxidase 3) (Oryza sativa, UniProt Q8S0S6, K308A); test: GC-SIM-MS of GA34, activity after incubation with GA4; format: biochemical; details: interface-site mutant; 2-oxoglutarate, Fe(II), pH 7.9, 30 °C
T3 construct: gene GA2OX3; full-length coding region in pGEX6P1, GST tag cut off with PreScission protease, E. coli Rosetta (DE3) pLysS; monomer, homotetramer with GA4
T3 sequence (Q8S0S6 whole entry K308A): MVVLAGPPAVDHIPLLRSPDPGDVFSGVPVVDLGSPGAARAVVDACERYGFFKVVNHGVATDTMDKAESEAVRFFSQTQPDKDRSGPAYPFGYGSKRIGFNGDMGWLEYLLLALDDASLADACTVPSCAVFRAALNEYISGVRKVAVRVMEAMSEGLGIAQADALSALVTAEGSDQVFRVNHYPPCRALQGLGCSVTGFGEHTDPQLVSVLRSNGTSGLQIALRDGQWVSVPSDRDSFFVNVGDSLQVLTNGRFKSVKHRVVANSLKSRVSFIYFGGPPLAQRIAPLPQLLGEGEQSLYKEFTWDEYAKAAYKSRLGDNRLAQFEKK
Protocol: GC-SIM-MS of GA34, activity after incubation with GA4 on OsGA2ox3 (GA 2-oxidase 3) | a single mutation, such as […] or 3Mu, led to no activation by GA4

[3] = target: T4, OsGA2ox3 (GA 2-oxidase 3) (Oryza sativa, UniProt Q8S0S6, C194A/K308A/K313A); test: as above; format: biochemical; details: 3Mu, interface-site mutant; same
T4 construct: gene GA2OX3; full-length coding region in pGEX6P1, GST tag cut off with PreScission protease, E. coli Rosetta (DE3) pLysS; monomer, homotetramer with GA4
T4 sequence (Q8S0S6 whole entry C194A/K308A/K313A): as the sequence (Q8S0S6 whole entry K308A) above, with C194A, K313A counted along it

[4] = target: T5, OsDAO (dioxygenase for auxin oxidation) (Oryza sativa, UniProt Q7XKU5); test: X-ray crystal structure, […] Å; format: binding; details: allosteric, two IAA molecules at the dimer interface; crystallised with 2-oxoglutarate
T5 construct: gene DAO; full-length coding region in pGEX6P1, GST tag cut off with PreScission protease, E. coli Rosetta (DE3) pLysS; monomer, dimer with IAA
T5 sequence (Q7XKU5 1-300): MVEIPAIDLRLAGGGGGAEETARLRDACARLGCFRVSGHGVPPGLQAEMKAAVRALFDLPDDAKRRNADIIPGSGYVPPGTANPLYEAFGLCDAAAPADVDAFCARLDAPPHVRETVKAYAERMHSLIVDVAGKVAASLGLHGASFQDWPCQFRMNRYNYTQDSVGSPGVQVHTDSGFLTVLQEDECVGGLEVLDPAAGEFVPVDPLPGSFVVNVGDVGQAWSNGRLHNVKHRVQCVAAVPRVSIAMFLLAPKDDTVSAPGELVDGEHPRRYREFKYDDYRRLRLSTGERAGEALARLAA

T1 sequence (Q8S0S6 whole entry): as the sequence (Q8S0S6 whole entry K308A) above, with A308K counted along it

Compound: C=C1C[C@]23C[C@H]1CC[C@H]2[C@@]12CC[C@H](O)[C@@](C)(C(=O)O1)[C@H]2[C@@H]3C(=O)O [GA4]
- X-ray crystal structure, 2.15 Å ([1]; active site and second site (allosteric, subunit interface), 2-oxoglutarate present): We crystallized the enzyme with the co-substrates, 2OG and GA4 in the absence Fe(II)
- gel filtration, ligand-induced dimerization (OsGA2ox6): The presence of GA4 induced a new peak of its dimer form
- GC-SIM-MS of GA34, activity after incubation with GA4 [2]: a single mutation, such as K308A or 3Mu, led to no activation by GA4
- GC-SIM-MS of GA34, activity after incubation with GA4 [3]: no activation of 3Mu occurred at all

Compound: O=C(O)CCC(=O)C(=O)O [2OG]
- X-ray crystal structure, 2.15 Å ([1]; active site, co-substrate, GA4 present): the amino acids interacting with 2OG (R269, S271, and Y183

Compound: O=C(O)Cc1c[nH]c2ccccc12 [indole-3-acetic acid]
- X-ray crystal structure, 2.0 Å [4]: We elucidated the crystal structure of OsDAO complexed with its substrate, IAA
